Assay results: PubChem BioAssay (NCI)
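Method: 48-hour compound exposure of cells in 96-well plates, five concentrations, linear interpolation of endpoints. GI50 is the concentration that inhibits growth by half. TGI is the concentration that stops growth completely.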

Each compound was assayed on MDA-MB-468 breast (assay: NCI-60 cell line screen, 48 h).

| Compound | GI50 | TGI |
| --- | --- | --- |
| Cn1cc(C2=C(c3cn(CCCN/C(N)=N\[N+](=O)[O-])c4ccccc34)C(=O)NC2=O)c2ccccc21 | 2090 nM | 9740 nM |
| COc1cc(/C=C2\CCCC3=C2N=C2SC=NN2C3c2cc(OC)c(OC)c(OC)c2)cc(OC)c1OC (stereo unspecified) | 2330 nM | 7520 nM |
| COC(=O)/C=C/c1cc(OC)c2c(c1)[C@@H](C(=O)OC)[C@H](c1ccc(OC)c(OC)c1)O2 | 1710 nM | > 100000 nM |
| CCc1cc(Cc2cc(CC)cc(C(C)(C)C)c2O)c(O)c(C(C)(C)C)c1 | 3540 nM | 13200 nM |
| C=C(C=O)[C@@H]1CC=C(C=O)CC1 | 2800 nM | > 100000 nM |
| COc1cc(-c2cc(C(=O)N3CCN(C(=O)c4ccccc4NCc4cccs4)CC3)nc3cc(-c4ccccc4)nn23)cc(OC)c1OC | 2710 nM | 14000 nM |
| N=C(N)c1ccc(-c2ccc(-c3ccccc3)o2)o1 | 1640 nM | 4190 nM |
| CCCCCCOc1ccc(/C=N/Nc2cc(C)nc3ccc(Br)cc23)cc1 | 1700 nM | 3220 nM |
| OC(c1cc2c(Cl)cc(Cl)cc2c2cc(C(F)(F)F)ccc12)C1CCCCN1 (stereo unspecified) | 1710 nM | 3220 nM |
| c1ccc(Oc2cnc3ccccc3n2)cc1 | 46400 nM | > 100000 nM |
| Nc1nc(-c2ccccc2Cl)cc(-c2ccc(Cl)cc2Cl)n1 | 2180 nM | 8660 nM |
| C=CCOc1ccc2c(c1)CC[C@@H]1[C@@H]2CC[C@]2(C)C(=O)/C(=N/O)C[C@@H]12 | 2180 nM | 10600 nM |
| O=c1c(Br)ccc(Br)cc1Br | 830 nM | 2620 nM |
| Cc1nc(N(C)C)nc(-c2cccc(-c3ccn(CCN(C)C)n3)c2)c1C | 12100 nM | > 20000 nM |
| O=C1COCCN1c1ccc(NCc2cn(Cc3ccc(F)cc3)c3ccccc23)cc1 | 23.9 nM | 78.3 nM |
| O=C(/C=C/c1ccco1)c1cccc(Nc2nc(Nc3ccccc3)nc(Nc3ccccc3)n2)c1 | 2800 nM | 28900 nM |
| COc1ccc(-c2nn(C(=O)c3cc(OC)c(OC)c(OC)c3)c3cc(N)ccc23)cc1 | < 14.1 nM | 190 nM |
| CN(Cc1cccc(Cl)c1)c1ccc(CO)c(Cl)c1 | 57 nM | 217 nM |
| COc1ccc(S(=O)(=O)Nc2c(/C=C\c3cc(OC)c(OC)c(OC)c3)ccc(OC)c2O)cc1OC | 75.5 nM | 441 nM |
| Nc1ncnc2c1c(-c1ccc(Oc3ccccc3)cc1)nn2C[C@H]1SSC[C@H]1O | 211 nM | 627 nM |

| Compound | GI50 | TGI |
| --- | --- | --- |
| CCOc1ccc(-n2cc(-c3ccc(N(C)C)cc3)[n+]3c2CCCCC3)cc1 | 42 nM | 2340 nM |
| O=C(Nc1ccc(-n2cc(-c3ccncc3)c(-c3ccc(Cl)c(O)c3)n2)cc1)c1ccc(Cl)c(C(F)(F)F)c1 | 1840 nM | 5680 nM |
| Clc1ccc2c(NCCCNCc3ccc4c(c3)OCO4)ccnc2c1 | 2040 nM | 5130 nM |
| Nc1c(S(=O)(=O)O)cc2c(c1Cl)C(=O)c1ccccc1C2=O | > 100000 nM | > 100000 nM |
| COc1cc(-c2nc3cc(Cl)c(Cl)cc3[nH]2)ccc1OCC(=O)N=Nc1c(O)[nH]c2ccccc12 | 250 nM | 685 nM |
| CCOc1ccc(NC2=C(Cl)C(=O)c3nc(C)ccc3C2=O)cc1 | 1490 nM | 2920 nM |
| COc1cc(Cl)c(C)cc1NC(=O)c1cc2ccccc2cc1O | 2760 nM | 9740 nM |
| COc1ccc2c(c1)cn1c3ccc(OC)cc3[nH]c(=O)c21 | 63.5 nM | 1040 nM |
| CCCCCCCCCCCC(=O)[O][Sn]([CH2]CCC)([CH2]CCC)[CH2]CCC | 28 nM | 78.7 nM |
| CC/C(=C(/c1ccc(Cl)cc1)c1ccc(OCCCN(C)C)cc1)c1ccc(OC)cc1 | 1060 nM | 2260 nM |
| CCOC(=O)C1=CN(Cc2ccccc2)C2ON=C(c3ccc(Cl)cc3)C2C1 (stereo unspecified) | 15500 nM | > 100000 nM |
| COc1cc(Nc2nccc(-c3cnn4ncccc34)n2)cc(OC)c1 | 64.3 nM | 217 nM |
| Nc1c(C(=O)Nc2cccc3ccccc23)sc2nc3c(cc12)CCCCCC3 | 675 nM | 11600 nM |
| N[C@@H](Cc1ccc(N(CCCl)CCCl)cc1)C(=O)O | 3840 nM | 23700 nM |
| NC(CSC(c1ccccc1)(c1ccccc1)c1ccc(Br)cc1)C(=O)O (stereo unspecified) | 116 nM | > 31600 nM |
| O=c1c(-c2nc3ccccc3[nH]2)cc2ccccc2n1Cc1cn(Cc2ccc(F)cc2)nn1 | 93.1 nM | 2780 nM |
| COc1cccc(-c2nn(C)c3sc(C(=O)NCCN4CCN(c5ccccc5F)CC4)cc23)c1 | 7810 nM | > 100000 nM |
| COc1ccc(/C=N/C2=C(C#N)C(c3ccccc3)c3ccc4ccccc4c3O2)cc1 (stereo unspecified) | 454 nM |  |
| O=C1/C=C/[C@@H](O)[C@@H]2C[C@@H](O)C[C@H]2/C=C/CCCCO1 | 167 nM |  |
